From ChEMBL document CHEMBL1201862, “PubChem BioAssay data set” (2004) come the findings set out here.

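Dose response: 5 concentrations. Exposure: 48 h. Format: 96-well plates. Endpoint: linear interpolation; highest concentration if not reached. GI50 marks 50% less growth.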 Calls of active or inactive are those of the source. Cut-off read from the data, not from the text of the source: active = GI50 up to about 1.1 µM and inactive = higher.

What all share (assay): DTP human tumour cell line panel, 48 h
Experiment [1] relates to CAKI-1.
The test system of experiment [2] is HOP-92.
For experiment [3], the system named is IGROV-1.
Experiment [4] deals with M14.
In experiment [5] the test system is NCI-H23.
For experiment [6], the system named is NCI-H522.
Experiment [7] concerns OVCAR-4.
Experiment [8] deals with OVCAR-5.
Experiment [9] has as its system RPMI-8226.
The subject of experiment [10] is SF-295.
The subject of experiment [11] is SF-539.
Experiment [12] concerns SK-MEL-2.
Experiment [13] deals with SW-620.
For experiment [14], the system named is UACC-62.
Experiment [15] deals with UO-31.
Experiment [16] has as its system HOP-62.
Experiment [17] concerns NCI-H226.
For experiment [18], the system named is SK-MEL-5.

As to `CC(Cn1c2c3ccccc3ccc2c2oc(=O)c3ccccc3c21)N(C)C` (configuration not stated), the GI50 in experiment [1], in experiment [2], in experiment [3], in experiment [4], in experiment [5] and in experiment [6] was > 100 µM (inactive) each time. Further, the GI50 in experiment [7], in experiment [8], in experiment [9], in experiment [10], in experiment [11] and in experiment [12] was > 100 µM (inactive) in each case. The GI50 in experiment [13], in [14] and in experiment [15] was > 100 µM (inactive) throughout.
On to `COc1cccc(C2c3cc4c(cc3OC(O)(CO)C2C(=O)O)OCO4)c1.COc1cccc(C2c3cc4c(cc3OC3(O)COC(=O)C23)OCO4)c1` (configuration not stated), for which the GI50 in [16] is > 100 µM (inactive); in experiment [2], 30.6 µM (inactive); in [3], 62.7 µM (inactive); in experiment [4], 48.8 µM (inactive); in experiment [17] it was 50 µM (inactive); in [5], 43.5 µM (inactive). Moreover, the GI50 in experiment [7] is 37 µM (inactive); in experiment [8] it was > 100 µM (inactive); in experiment [9] it was 53 µM (inactive); in experiment [10] it was 39.9 µM (inactive); in experiment [11], > 100 µM (inactive); in experiment [12], > 100 µM (inactive). Moreover, the GI50 in experiment [18] was 67.1 µM (inactive); in [13], 82.2 µM (inactive); in experiment [14], 33.5 µM (inactive); in [15], 64.3 µM (inactive).
As to `COC(=O)C(c1ccc(OC)cc1)N1C(=O)[C@@H](NC(=O)c2ccccc2)[C@H]1[C@@H](C)O` (some centres not stated), the GI50 in [16], in experiment [2], in [3], in [4], in [17] and in experiment [5] was > 100 µM (inactive) in each case. The GI50 in experiment [6], in [7], in experiment [10], in experiment [11], in experiment [12] and in experiment [18] was > 100 µM (inactive) in each case. Moreover, the GI50 in [13], in experiment [14] and in experiment [15] was > 100 µM (inactive) each time.
As to `[O-]c1c2cc(-[n+]3c(-c4ccccc4)cc(-c4ccccc4)cc3-c3ccccc3)cc1COCCOCCOCCOCCOC2`, the GI50 in experiment [1] was > 100 µM (inactive); in experiment [16] it was 37 µM (inactive); in experiment [2] it was 26 µM (inactive); in [4] it was 37.4 µM (inactive); in experiment [17], > 100 µM (inactive); in [5], 41.9 µM (inactive). The GI50 in [6] was 35.6 µM (inactive); in experiment [7] it was 59.4 µM (inactive); in experiment [8] it was > 100 µM (inactive); in [10], 43.8 µM (inactive); in [11] it was 33 µM (inactive); in experiment [12], 21.7 µM (inactive). For the same molecule, the GI50 in [13] is 48.9 µM (inactive); in [14], 19.5 µM (inactive); in experiment [15], 85.3 µM (inactive).
For `O=[N+]([O-])c1cccc(C2=NN(c3ccccc3)C3c4ccccc4OCC23)c1` (configuration not stated), the GI50 is > 100 µM (inactive) in experiment [16]; 52.8 µM (inactive) in [2]; > 100 µM (inactive) in [3]; > 100 µM (inactive) in experiment [5]; 62.1 µM (inactive) in [6]; > 100 µM (inactive) in experiment [8]. The GI50 in experiment [9] was > 100 µM (inactive); in experiment [10] it was > 100 µM (inactive); in experiment [11], > 100 µM (inactive); in experiment [12] it was > 100 µM (inactive); in experiment [13], > 100 µM (inactive); in experiment [15], 6.71 µM (inactive).
Take `C=CCn1c(=S)sc2c(C(=O)OCC)c3c(C)cc(C)cn3c2c1=O`: the GI50 in experiment [1], in experiment [16], in experiment [3], in experiment [4], in [17] and in experiment [5] was > 100 µM (inactive) throughout. In addition, the GI50 in experiment [6] was 65.6 µM (inactive); in [8], > 100 µM (inactive); in experiment [9] it was > 100 µM (inactive); in experiment [10], 86.7 µM (inactive); in experiment [11], 80.5 µM (inactive); in experiment [12], > 100 µM (inactive). For the same molecule, the GI50 in experiment [18], in experiment [13], in experiment [14] and in experiment [15] was > 100 µM (inactive) throughout.
Take `Cc1ccc(Nc2nc(-c3ccc(-c4ccc([N+](=O)[O-])cc4)o3)cs2)cc1`: the GI50 was > 100 µM (inactive) in experiment [1]; > 100 µM (inactive) in [16]; 37.2 µM (inactive) in experiment [2]; 22.7 µM (inactive) in experiment [3]; > 100 µM (inactive) in [4]; 48.3 µM (inactive) in experiment [17]. Also, the GI50 in [5] was 25.6 µM (inactive); in experiment [7], 63.1 µM (inactive); in experiment [8], 59 µM (inactive); in [9], 12.6 µM (inactive); in experiment [10], 33.2 µM (inactive); in experiment [11], 93.8 µM (inactive). Also, the GI50 in [12] was > 100 µM (inactive); in experiment [13], 95.3 µM (inactive); in [14], 99.8 µM (inactive); in [15] it was 8.51 µM (inactive).
Consider `COc1ccc(/C=C2\CCCCC2=O)cc1`, for which the GI50 was 92.5 µM (inactive) in [1]; > 100 µM (inactive) in [16]; > 100 µM (inactive) in experiment [3]; > 100 µM (inactive) in experiment [4]; > 100 µM (inactive) in experiment [5]; > 100 µM (inactive) in [7]. In addition, the GI50 in experiment [10], in experiment [11], in [18], in experiment [13], in experiment [14] and in experiment [15] was > 100 µM (inactive) in each case.
On to `N=C(N)NS(=O)(=O)c1ccc(NC(=O)c2cccc3c(Nc4ccc(S(=O)(=O)N=C(N)N)cc4)c4ccc(Cl)cc4nc23)cc1`, for which the GI50 in [1] is 94.6 µM (inactive); in [16], 58.6 µM (inactive); in [2] it was 32.7 µM (inactive); in [3], 74.8 µM (inactive); in experiment [4] it was 70.1 µM (inactive); in experiment [5], > 100 µM (inactive). Further, the GI50 is 30.4 µM (inactive) in experiment [6]; 80 µM (inactive) in experiment [7]; > 100 µM (inactive) in experiment [8]; 43.9 µM (inactive) in experiment [9]; > 100 µM (inactive) in experiment [10]; > 100 µM (inactive) in experiment [11]. Further, the GI50 in experiment [12] was > 100 µM (inactive); in [18], 28.6 µM (inactive); in experiment [13] it was 62.4 µM (inactive); in experiment [14] it was 33.3 µM (inactive); in experiment [15], 50.8 µM (inactive).
As for `Cc1nc(NC(=S)NC(=O)c2ccc(Cl)c(Cl)c2)sc1C(=O)/C=C/c1ccccc1[N+](=O)[O-]`, the GI50 was 21.1 µM (inactive) in experiment [1]; 21.2 µM (inactive) in [16]; 0.989 µM (active) in [2]; 24.5 µM (inactive) in experiment [3]; 23.8 µM (inactive) in [4]; 20.9 µM (inactive) in [5]. In addition, the GI50 in [6] is 16.9 µM (inactive); in [7], 26.8 µM (inactive); in experiment [8] it was > 10 µM (inactive); in experiment [9] it was 24.2 µM (inactive); in experiment [10] it was 24.2 µM (inactive); in experiment [11], 19 µM (inactive). For the same molecule, the GI50 in [12] was 18.4 µM (inactive); in [13] it was 20.2 µM (inactive); in experiment [14], 10.9 µM (inactive); in [15], 20.8 µM (inactive).
As for `Nc1ncnc2c1ncn2CCCC(c1ccccc1)P(=O)(O)O` (configuration not stated), the GI50 was 17 µM (inactive) in [1]; > 100 µM (inactive) in experiment [3]; > 100 µM (inactive) in experiment [17]; > 100 µM (inactive) in experiment [5]; > 100 µM (inactive) in experiment [6]; > 100 µM (inactive) in experiment [8]. Further, the GI50 in [10], in experiment [11], in experiment [12], in [18], in experiment [13] and in experiment [14] was > 100 µM (inactive) each time. The GI50 in experiment [15] is > 100 µM (inactive).
Turning to `O=C(O)C#CCO`, the GI50 in [1], in experiment [16], in experiment [2], in [3], in [4] and in experiment [5] was > 100 µM (inactive) in each case. Also, the GI50 in [6], in experiment [7], in experiment [8], in experiment [9], in experiment [10] and in experiment [11] was > 100 µM (inactive) each time. In addition, the GI50 in experiment [12], in experiment [18], in experiment [13], in experiment [14] and in experiment [15] was > 100 µM (inactive) throughout.
`O=C1C(Br)=CC2(C=C1Br)CCNC1=C2C(=O)c2ccccc2C1=O`: the GI50 in experiment [1] is 21.6 µM (inactive); in [16] it was 16 µM (inactive); in experiment [3] it was 18.5 µM (inactive); in [4], 18.4 µM (inactive); in [5], 7.6 µM (inactive); in experiment [6] it was 3.58 µM (inactive). The GI50 in experiment [9] is 4.75 µM (inactive); in experiment [10], 16.8 µM (inactive); in experiment [12], 14.9 µM (inactive); in experiment [18], 11.6 µM (inactive); in [13] it was 9.98 µM (inactive); in experiment [14] it was 8.59 µM (inactive).

A word on the GI50: it is the concentration at which growth is held to half of that of the control.
